The source of these data is patent publication US20240246942A1, “KINASE INHIBITORS FOR THE TREATMENT OF NEURODEGENERATIVE DISEASES” (priority 2020, published 2024).

What all share (assay): biochemical
In assay [1] the target is T1, panel of 374 wild-type kinases (Homo sapiens, UniProt Q5VT25).
T1 construct: purchased Reaction Biology Corporation
Particulars: read-out: % Enzyme Activity (relative to DMSO controls), MRCKa/CDC42BPA.

The target in assay [2] is T2, panel of 374 wild-type kinases (Homo sapiens, UniProt Q92918).
T2 construct: purchased Reaction Biology Corporation
T2 sequence (Q92918 whole entry): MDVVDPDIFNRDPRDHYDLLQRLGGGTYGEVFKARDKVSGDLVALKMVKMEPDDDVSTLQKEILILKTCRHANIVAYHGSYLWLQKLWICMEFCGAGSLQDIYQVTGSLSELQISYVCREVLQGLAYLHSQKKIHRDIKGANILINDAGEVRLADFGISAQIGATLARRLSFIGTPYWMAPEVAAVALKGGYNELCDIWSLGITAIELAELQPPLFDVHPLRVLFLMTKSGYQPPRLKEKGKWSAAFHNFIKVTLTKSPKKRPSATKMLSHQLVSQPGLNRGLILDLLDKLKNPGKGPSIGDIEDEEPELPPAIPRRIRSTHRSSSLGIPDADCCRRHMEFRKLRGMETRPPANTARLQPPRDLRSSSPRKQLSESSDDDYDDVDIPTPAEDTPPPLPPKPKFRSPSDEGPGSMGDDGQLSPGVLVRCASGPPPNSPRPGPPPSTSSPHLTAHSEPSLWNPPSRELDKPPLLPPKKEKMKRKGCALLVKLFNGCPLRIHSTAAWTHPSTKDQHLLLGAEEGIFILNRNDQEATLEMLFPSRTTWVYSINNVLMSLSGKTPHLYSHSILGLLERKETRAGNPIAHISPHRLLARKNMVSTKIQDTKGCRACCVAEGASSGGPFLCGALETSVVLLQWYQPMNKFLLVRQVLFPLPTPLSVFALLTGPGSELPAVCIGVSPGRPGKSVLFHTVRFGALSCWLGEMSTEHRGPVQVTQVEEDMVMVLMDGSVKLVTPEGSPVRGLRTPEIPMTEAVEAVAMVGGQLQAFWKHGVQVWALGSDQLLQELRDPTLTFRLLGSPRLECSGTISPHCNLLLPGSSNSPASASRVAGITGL
Particulars: read-out: % Enzyme Activity (relative to DMSO controls), HPK1/MAP4K1.

Assay [3] concerns the target T3, panel of 374 wild-type kinases (Homo sapiens, UniProt P49761).
T3 construct: purchased Reaction Biology Corporation
Particulars: read-out: % Enzyme Activity (relative to DMSO controls), CLK3.

The target in assay [4] is T4, panel of 374 wild-type kinases (Homo sapiens, UniProt Q13555).
T4 construct: purchased Reaction Biology Corporation
T4 sequence (Q13555 whole entry): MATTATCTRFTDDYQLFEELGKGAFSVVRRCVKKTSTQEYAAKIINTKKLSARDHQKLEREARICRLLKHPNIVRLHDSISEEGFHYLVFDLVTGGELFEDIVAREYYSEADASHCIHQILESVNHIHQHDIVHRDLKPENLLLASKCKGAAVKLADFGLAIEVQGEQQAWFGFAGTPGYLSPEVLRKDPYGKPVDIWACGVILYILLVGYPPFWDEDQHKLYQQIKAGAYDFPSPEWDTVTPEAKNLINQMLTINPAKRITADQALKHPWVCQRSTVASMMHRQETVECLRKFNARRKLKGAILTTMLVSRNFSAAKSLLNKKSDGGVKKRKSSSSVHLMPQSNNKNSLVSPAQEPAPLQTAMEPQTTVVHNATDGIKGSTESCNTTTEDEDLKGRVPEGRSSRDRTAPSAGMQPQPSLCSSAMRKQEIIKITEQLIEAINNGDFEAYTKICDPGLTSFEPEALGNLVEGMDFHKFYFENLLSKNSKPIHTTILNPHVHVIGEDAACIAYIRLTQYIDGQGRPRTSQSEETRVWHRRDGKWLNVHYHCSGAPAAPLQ
Particulars: read-out: % Enzyme Activity (relative to DMSO controls), CAMK2g.

Assay [5] deals with T5, panel of 374 wild-type kinases (Homo sapiens, UniProt P11309).
T5 construct: purchased Reaction Biology Corporation
T5 sequence (P11309 whole entry): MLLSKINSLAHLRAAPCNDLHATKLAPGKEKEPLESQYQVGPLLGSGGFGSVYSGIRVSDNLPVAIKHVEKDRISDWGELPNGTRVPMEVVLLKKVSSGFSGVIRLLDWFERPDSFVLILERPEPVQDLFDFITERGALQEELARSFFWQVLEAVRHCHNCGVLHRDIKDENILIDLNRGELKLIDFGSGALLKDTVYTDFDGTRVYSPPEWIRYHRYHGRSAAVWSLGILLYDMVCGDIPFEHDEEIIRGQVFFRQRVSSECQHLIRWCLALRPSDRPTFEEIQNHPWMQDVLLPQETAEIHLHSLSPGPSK
To be noted: read-out: % Enzyme Activity (relative to DMSO controls), kinase PIM1.

Assay [6] has as its target T6, panel of 374 wild-type kinases (Homo sapiens, UniProt Q13976).
T6 construct: purchased Reaction Biology Corporation
T6 sequence (Q13976 1-671): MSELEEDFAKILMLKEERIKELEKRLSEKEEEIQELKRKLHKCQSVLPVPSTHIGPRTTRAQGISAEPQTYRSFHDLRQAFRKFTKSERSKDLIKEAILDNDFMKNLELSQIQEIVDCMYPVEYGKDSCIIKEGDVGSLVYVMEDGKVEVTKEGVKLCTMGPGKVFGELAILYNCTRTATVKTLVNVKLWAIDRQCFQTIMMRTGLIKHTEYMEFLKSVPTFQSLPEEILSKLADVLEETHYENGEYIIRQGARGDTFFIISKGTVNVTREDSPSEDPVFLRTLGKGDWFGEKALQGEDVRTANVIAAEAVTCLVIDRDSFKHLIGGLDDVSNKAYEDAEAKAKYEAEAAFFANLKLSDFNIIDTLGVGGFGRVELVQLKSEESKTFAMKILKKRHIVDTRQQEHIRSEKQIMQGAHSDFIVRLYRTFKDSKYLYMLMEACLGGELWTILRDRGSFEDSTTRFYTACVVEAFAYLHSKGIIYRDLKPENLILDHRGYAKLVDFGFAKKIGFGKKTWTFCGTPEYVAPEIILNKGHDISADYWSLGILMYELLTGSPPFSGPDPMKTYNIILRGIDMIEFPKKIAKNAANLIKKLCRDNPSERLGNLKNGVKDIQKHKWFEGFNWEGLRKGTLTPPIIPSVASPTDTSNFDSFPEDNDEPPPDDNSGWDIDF
Particulars: read-out: % Enzyme Activity (relative to DMSO controls), kinase PKG1a.

For assay [7], the target named is T7, panel of 374 wild-type kinases (Homo sapiens, UniProt Q15835).
T7 construct: purchased Reaction Biology Corporation
T7 sequence (Q15835 1-563): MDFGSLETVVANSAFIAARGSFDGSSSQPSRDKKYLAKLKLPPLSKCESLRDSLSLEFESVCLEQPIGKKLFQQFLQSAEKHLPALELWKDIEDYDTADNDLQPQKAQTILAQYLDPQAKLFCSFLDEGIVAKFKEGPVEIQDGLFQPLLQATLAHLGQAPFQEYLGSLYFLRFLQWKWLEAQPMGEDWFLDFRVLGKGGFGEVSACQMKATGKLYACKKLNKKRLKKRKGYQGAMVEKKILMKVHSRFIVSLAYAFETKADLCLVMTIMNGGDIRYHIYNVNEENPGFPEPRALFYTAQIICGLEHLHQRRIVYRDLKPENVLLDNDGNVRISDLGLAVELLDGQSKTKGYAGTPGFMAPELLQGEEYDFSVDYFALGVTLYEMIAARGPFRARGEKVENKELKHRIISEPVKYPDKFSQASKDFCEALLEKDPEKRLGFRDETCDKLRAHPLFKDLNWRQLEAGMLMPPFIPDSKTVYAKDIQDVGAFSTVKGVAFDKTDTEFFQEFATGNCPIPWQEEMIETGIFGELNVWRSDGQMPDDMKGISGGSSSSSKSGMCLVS
To be noted: read-out: % Enzyme Activity (relative to DMSO controls), GRK1.

In assay [8] the target is T8, panel of 374 wild-type kinases (Homo sapiens, UniProt Q6IQ55).
T8 construct: purchased Reaction Biology Corporation
To be noted: read-out: % Enzyme Activity (relative to DMSO controls), kinase TTBK2.

The target in assay [9] is T9, panel of 374 wild-type kinases (Homo sapiens, UniProt P49674).
T9 construct: purchased Reaction Biology Corporation
T9 sequence (P49674 whole entry): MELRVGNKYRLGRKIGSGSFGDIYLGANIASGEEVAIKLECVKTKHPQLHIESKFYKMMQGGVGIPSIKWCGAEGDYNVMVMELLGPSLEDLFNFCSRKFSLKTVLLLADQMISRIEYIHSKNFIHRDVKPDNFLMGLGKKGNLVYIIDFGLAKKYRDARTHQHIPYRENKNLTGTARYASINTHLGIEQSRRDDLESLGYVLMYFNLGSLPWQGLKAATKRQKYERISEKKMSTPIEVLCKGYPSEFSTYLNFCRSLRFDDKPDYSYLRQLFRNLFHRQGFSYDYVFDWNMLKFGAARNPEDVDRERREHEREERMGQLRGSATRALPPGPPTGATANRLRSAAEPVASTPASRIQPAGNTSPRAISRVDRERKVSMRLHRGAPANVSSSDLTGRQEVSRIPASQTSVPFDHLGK
To be noted: read-out: % Enzyme Activity (relative to DMSO controls), CK1epsilon.

The target in assay [10] is T10, panel of 374 wild-type kinases (Homo sapiens, UniProt P10398).
T10 construct: purchased Reaction Biology Corporation
T10 sequence (P10398 1-606): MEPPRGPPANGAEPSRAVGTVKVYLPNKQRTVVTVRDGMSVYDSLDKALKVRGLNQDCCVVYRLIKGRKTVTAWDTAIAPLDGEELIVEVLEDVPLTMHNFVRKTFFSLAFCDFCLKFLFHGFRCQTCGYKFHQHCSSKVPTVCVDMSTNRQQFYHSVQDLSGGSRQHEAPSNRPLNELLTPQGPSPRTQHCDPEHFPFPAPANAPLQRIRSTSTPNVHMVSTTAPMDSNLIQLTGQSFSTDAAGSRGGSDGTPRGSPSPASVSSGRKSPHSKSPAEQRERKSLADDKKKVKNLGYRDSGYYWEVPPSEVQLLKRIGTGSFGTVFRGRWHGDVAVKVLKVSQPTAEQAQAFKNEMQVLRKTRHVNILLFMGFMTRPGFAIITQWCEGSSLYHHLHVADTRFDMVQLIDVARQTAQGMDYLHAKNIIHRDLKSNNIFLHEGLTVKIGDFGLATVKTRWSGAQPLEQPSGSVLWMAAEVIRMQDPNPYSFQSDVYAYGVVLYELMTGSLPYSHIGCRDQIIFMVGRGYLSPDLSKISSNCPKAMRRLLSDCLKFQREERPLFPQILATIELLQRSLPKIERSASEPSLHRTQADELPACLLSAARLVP
Particulars: read-out: % Enzyme Activity (relative to DMSO controls), ARAF.

T1 sequence (Q5VT25 whole entry): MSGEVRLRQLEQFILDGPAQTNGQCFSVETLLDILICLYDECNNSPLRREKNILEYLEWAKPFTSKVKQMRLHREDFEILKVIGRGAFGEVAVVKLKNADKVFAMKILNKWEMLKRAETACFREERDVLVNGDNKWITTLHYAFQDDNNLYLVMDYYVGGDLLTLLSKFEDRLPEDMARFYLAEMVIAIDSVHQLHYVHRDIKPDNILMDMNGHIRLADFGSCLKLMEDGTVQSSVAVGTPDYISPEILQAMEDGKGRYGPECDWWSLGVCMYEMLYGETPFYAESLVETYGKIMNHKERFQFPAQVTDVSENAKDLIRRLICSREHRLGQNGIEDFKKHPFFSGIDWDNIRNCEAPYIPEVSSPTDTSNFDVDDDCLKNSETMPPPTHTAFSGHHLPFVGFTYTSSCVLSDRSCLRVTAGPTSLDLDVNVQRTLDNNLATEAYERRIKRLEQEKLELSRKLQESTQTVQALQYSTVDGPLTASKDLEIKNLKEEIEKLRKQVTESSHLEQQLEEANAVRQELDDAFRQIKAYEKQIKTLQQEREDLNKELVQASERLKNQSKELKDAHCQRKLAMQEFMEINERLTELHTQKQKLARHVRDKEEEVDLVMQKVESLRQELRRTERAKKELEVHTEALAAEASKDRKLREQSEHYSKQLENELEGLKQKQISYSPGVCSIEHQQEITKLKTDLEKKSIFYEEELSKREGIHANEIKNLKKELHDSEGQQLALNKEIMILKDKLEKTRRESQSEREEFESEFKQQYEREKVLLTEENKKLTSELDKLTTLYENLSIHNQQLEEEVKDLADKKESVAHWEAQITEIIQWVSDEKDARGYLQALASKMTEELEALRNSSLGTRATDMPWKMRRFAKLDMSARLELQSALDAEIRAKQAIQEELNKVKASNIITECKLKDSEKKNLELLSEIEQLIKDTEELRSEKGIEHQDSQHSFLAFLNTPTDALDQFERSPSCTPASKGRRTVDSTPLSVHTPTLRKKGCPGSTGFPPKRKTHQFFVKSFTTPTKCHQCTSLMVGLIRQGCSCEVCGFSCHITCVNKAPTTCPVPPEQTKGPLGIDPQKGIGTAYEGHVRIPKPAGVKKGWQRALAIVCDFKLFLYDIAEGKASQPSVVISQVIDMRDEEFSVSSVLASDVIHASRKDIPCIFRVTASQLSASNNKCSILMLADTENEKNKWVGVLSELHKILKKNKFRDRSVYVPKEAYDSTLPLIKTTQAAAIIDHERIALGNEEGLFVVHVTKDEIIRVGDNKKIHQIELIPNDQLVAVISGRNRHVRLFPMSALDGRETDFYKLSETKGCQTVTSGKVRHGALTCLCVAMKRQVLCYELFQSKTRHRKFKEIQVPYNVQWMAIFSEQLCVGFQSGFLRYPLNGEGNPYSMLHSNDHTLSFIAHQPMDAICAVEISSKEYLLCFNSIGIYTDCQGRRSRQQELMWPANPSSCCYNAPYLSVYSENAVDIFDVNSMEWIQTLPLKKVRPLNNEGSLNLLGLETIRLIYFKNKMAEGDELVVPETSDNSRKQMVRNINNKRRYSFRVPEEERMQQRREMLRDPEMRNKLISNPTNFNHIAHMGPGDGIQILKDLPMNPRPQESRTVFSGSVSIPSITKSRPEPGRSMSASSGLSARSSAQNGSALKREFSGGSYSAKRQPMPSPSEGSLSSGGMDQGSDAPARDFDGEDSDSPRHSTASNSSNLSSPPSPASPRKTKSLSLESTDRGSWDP
T3 sequence (P49761 whole entry): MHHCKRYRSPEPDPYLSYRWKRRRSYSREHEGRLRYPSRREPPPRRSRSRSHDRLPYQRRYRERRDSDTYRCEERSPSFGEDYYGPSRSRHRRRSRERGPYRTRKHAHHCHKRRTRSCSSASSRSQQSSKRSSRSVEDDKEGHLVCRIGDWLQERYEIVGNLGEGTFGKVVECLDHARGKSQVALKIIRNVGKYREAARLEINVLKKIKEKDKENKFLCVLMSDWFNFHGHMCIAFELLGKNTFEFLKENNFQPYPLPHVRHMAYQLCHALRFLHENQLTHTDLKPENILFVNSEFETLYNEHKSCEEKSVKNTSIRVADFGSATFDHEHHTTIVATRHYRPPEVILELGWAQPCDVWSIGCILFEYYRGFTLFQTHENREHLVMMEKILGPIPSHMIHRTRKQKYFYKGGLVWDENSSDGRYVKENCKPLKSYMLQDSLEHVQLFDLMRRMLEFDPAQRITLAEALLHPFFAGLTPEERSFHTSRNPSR

On to `O=C(Nc1cnn(-c2csc(C(=O)NC3COC3)c2)c1)Nc1ccccc1Cl` [Compound 17, 4-(4-(3-(2-chlorophenyl)ureido)-1H-pyrazol-1-yl)-N-(oxetan-3-yl)thiophene-2-carboxamide], for which the remaining activity at 5 µM in assay [1] amounted to 99.3%; in [2], 132%; in [3], 120%; in assay [4], 96.4%; in assay [5], 64.6%; in assay [6], 110%. The remaining activity at 5 µM in [7] amounted to 91.9%; in [8], 107%; in assay [9], 89.6%; in assay [10] it was 95.1%.
With `O=C(Nc1cnn(-c2csc(C(=O)NC3COC3)c2)c1)Nc1c(F)cccc1Cl` [Compound 25, 4-(4-(3-(2-chloro-6-fluorophenyl)ureido)-1H-pyrazol-1-yl)-N-(oxetan-3-yl)thiophene-2-carboxamide], the remaining activity at 5 µM in assay [1] was 99%; in [2] it was 92.7%; in assay [3], 93.5%; in assay [4], 90.1%; in [5], 73.3%; in assay [6] it was 93.2%. The remaining activity at 5 µM in [7] worked out at 92.9%; in assay [8] it was 104%; in assay [9], 88.6%; in [10], 94.4%.
In the case of `Cc1sc(C(=O)NC2COC2)cc1-n1cc(NC(=O)Nc2c(F)cccc2Cl)cn1` [Compound 27, 4-(4-(3-(2-chloro-6-fluorophenyl)ureido)-1H-pyrazol-1-yl)-5-methyl-N-(oxetan-3-yl)thiophene-2-carboxamide], the remaining activity at 10 µM came out at 104% in assay [1] (10 uM); 99.2% in assay [2] (10 uM); 99.6% in assay [3] (10 uM); 102% in assay [4] (10 uM); 95.1% in assay [5] (10 uM); 120% in assay [6] (10 uM). The remaining activity at 10 µM came out at 113% in assay [7] (10 uM), 97.6% in [8] (10 uM), 97.9% in [9] (10 uM) and 84.1% in assay [10] (10 uM).
